Earlier results in patent publication US12220416B2, “Methylene-tetrahydrofolate reductase isoform-based biomarker and method of use thereof” (RUSH UNIVERSITY MEDICAL CENTER, priority 2017, dated 2025).

Conditions: RA patients on MTX therapy; ADEs provoke discontinuation of MTX therapy; ref [38]

## CN(Cc1cnc2nc(N)nc(N)c2n1)c1ccc(C(=O)N[C@@H](CCC(=O)O)C(=O)O)cc1 [MTX, Methotrexate]
  RA patients developing MTX-related adverse drug events (ADEs): approximately 30%
